Calls of active or inactive are those of the source. The rule behind the calls is not given here.
Experiments:
[1] = target: T1, Gonadotropin-releasing hormone receptor (Homo sapiens, UniProt P30968); assay: Inhibition of human GnRHR expressed in RBL cells assessed as inhibition of GnRH-stimulated [3H]inositol phosphate hydrolysis; type: functional, cell-based
T1 sequence (P30968 whole entry): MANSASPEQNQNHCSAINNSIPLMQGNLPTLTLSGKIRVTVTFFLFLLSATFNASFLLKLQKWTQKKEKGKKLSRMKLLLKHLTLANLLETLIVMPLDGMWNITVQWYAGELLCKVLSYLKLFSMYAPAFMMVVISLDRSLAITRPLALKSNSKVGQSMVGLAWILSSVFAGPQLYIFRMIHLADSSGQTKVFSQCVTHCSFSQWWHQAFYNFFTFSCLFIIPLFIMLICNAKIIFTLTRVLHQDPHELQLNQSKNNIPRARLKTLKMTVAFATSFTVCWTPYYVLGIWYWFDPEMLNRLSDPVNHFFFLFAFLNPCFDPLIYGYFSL

[2] = target: T2, Gonadotropin-releasing hormone receptor (Rattus norvegicus, UniProt P30969); assay: Displacement of [125I]-Tyr5, DLeu6, NMeLeu7, Pro-N-Et-GnRH from cloned rat GnRHR
T2 sequence (P30969 whole entry): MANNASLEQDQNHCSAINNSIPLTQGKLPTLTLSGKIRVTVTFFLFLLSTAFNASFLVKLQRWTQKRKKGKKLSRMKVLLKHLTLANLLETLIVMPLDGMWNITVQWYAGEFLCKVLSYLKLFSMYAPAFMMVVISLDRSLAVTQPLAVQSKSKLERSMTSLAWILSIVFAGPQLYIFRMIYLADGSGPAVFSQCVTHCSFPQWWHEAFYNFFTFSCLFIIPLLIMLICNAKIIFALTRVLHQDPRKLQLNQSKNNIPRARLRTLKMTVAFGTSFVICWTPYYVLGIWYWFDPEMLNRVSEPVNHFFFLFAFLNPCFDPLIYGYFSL

[3] = target: T2, Gonadotropin-releasing hormone receptor; assay: Inhibition of GnRHR in rat pituitary cells assessed as inhibition of GnRH-stimulated LH release; type: functional, cell-based, Pituitary gland cell
[4] = AUC in rat at 15 mg/kg, ip after 24 hrs; type: ADME, organism-based; parameters: time < 24 hr, dose 15 mg/kg, route intraperitoneal; settings: plasma
[5] = AUC in rat at 4.5 mg/kg, ip after 24 hrs; type: ADME, organism-based; parameters: time < 24 hr, dose 4.5 mg/kg, route intraperitoneal; settings: plasma
[6] = AUC in rat at 1.5 mg/kg, ip after 24 hrs; type: ADME, organism-based; parameters: time < 24 hr, dose 1.5 mg/kg, route intraperitoneal; settings: plasma
[7] = target: T3, Gonadotropin-releasing hormone receptor (Rattus norvegicus) (UniProt P30969); assay: Decrease in LH concentration in rat plasma at 1.5 mg/kg, ip after 24 hrs by radioimmunoassay; type: functional, organism-based; parameters: dose 1.5 mg/kg
T3 sequence (whole entry): T2 sequence (P30969 whole entry)

[8] = target: T3, Gonadotropin-releasing hormone receptor (Rattus norvegicus); assay: Decrease in LH concentration in rat plasma at 15 mg/kg, ip after 24 hrs by radioimmunoassay; type: functional, organism-based; parameters: dose 15 mg/kg

SMILES	IC50 [1] [µM]	Ki [2] [µM]	IC50 [3] [µM]	further results
Cc1cc(C)cc(-c2[nH]c3c(c2[C@H](C)CNCCOc2ccc(-c4nnn[nH]4)cc2)CN(C(=O)Cc2c(F)cccc2C(F)(F)F)CC3)c1	0.063	0.0062	–	–
Cc1cc(C)cc(-c2[nH]c3c(c2[C@H](C)CNCCc2ccc4nc(C)[nH]c4c2)CN(C(=O)Cc2c(F)cccc2C(F)(F)F)CC3)c1	0.087	0.001	–	–
Cc1cc(C)cc(-c2[nH]c3c(c2[C@H](C)CNCCc2ccncc2)CN(C(=O)Cc2ccccc2C(F)(F)F)CC3)c1	0.086	0.0015	0.047	–
CC(=O)N1CCc2[nH]c(-c3cc(C)cc(C)c3)c([C@H](C)CNCCc3ccncc3)c2C1	8.09	0.12	–	–
Cc1cc(C)cc(-c2[nH]c3c(c2[C@H](C)CNCCc2ccncc2)CN(C(=O)Cc2ccccc2)CC3)c1	1.11	0.0045	0.11	–
Cc1cc(C)cc(-c2[nH]c3c(c2[C@H](C)CNCCc2cc4[nH]nnc4cc2F)CN(C(=O)Cc2c(F)cccc2C(F)(F)F)CC3)c1	0.016	0.0007	0.028	–
COc1ccccc1CC(=O)N1CCc2[nH]c(-c3cc(C)cc(C)c3)c([C@H](C)CNCCc3ccncc3)c2C1	0.462	0.0056	–	–
Cc1cc(C)cc(-c2[nH]c3c(c2[C@H](C)CNCCc2ccncc2)CN(C(=O)Cc2ccccc2F)CC3)c1	0.271	0.0018	0.28	–
Cc1cc(C)cc(-c2[nH]c3c(c2[C@H](C)CNCCc2ccncc2)CN(C(=O)Cc2c(F)cccc2C(F)(F)F)CC3)c1	0.062	0.0005	0.057	–
Cc1cc(C)cc(-c2[nH]c3c(c2[C@H](C)CNCCc2ccncc2)CN(C(=O)c2ccccc2)CC3)c1	> 10	0.66	–	–
Cc1cc(C)cc(-c2[nH]c3c(c2[C@H](C)CNCc2ccc(-c4nnn[nH]4)cc2)CN(C(=O)Cc2c(F)cccc2C(F)(F)F)CC3)c1	1.6	1.6	–	–
Cc1cc(C)cc(-c2[nH]c3c(c2[C@H](C)CNCCc2ccc(-c4nnn[nH]4)cc2)CN(C(=O)Cc2c(F)cccc2C(F)(F)F)CC3)c1	0.0015	0.0002	0.0006	AUC at 24 h [4]: 6500 ng·h/mL; AUC at 24 h [5]: 2470 ng·h/mL; AUC at 24 h [6]: 1290 ng·h/mL; Activity [7]: Dose-dependent effect; Activity [8]: Active
Cc1cc(C)cc(-c2[nH]c3c(c2[C@H](C)CNCCc2ccc4nn[nH]c4c2)CN(C(=O)Cc2c(F)cccc2C(F)(F)F)CC3)c1	0.026	0.0005	0.0012	–
Cc1cc(C)cc(-c2[nH]c3c(c2[C@H](C)CN)CN(C(=O)Cc2c(F)cccc2C(F)(F)F)CC3)c1	4.18	0.47	–	–
Cc1cc(C)cc(-c2[nH]c3c(c2[C@H](C)CNCCc2ccncc2)CNCC3)c1	> 10	> 10	–	–
Cc1cc(C)cc(-c2[nH]c3c(c2[C@H](C)CNCCC2CCOCC2)CN(C(=O)Cc2c(F)cccc2C(F)(F)F)CC3)c1	0.205	0.0047	0.48	–
Cc1cc(C)cc(-c2[nH]c3c(c2[C@H](C)CNCCc2ccc4nccnc4c2)CN(C(=O)Cc2c(F)cccc2C(F)(F)F)CC3)c1	0.06	0.0003	0.068	–
Cc1cc(C)cc(-c2[nH]c3c(c2[C@H](C)CNCCc2ccc(C(=O)O)cc2)CN(C(=O)Cc2c(F)cccc2C(F)(F)F)CC3)c1	0.022	0.002	–	–
Cc1cc(C)cc(-c2[nH]c3c(c2[C@H](C)CNCCc2ccc(-c4nnn[nH]4)nc2)CN(C(=O)Cc2c(F)cccc2C(F)(F)F)CC3)c1	0.007	0.0006	0.044	–
Cc1cc(C)cc(-c2[nH]c3c(c2[C@H](C)CNCCc2ccncc2)CN(C(=O)C2CCCC2)CC3)c1	3.48	0.018	0.25	–
Cc1cc(C)cc(-c2[nH]c3c(c2[C@H](C)CNCCc2cnc4nn[nH]c4c2)CN(C(=O)Cc2c(F)cccc2C(F)(F)F)CC3)c1	0.009	0.0006	0.0064	–
Cc1cc(C)cc(-c2[nH]c3c(c2[C@H](C)CNCCc2ccncc2)CN(C(=O)Cc2ccccc2Cl)CC3)c1	0.267	0.0026	–	–
Cc1cc(C)cc(-c2[nH]c3c(c2[C@H](C)CNCCc2ccncc2)CN(C(=O)C24CC5CC(CC(C5)C2)C4)CC3)c1	0.546	0.0015	0.063	–
Cc1cc(C)cc(-c2[nH]c3c(c2[C@H](C)CNCCc2ccc(=O)n(C)c2)CN(C(=O)Cc2c(F)cccc2C(F)(F)F)CC3)c1	0.032	0.0004	–	–
CCn1c(=O)[nH]c2cc(CCNC[C@@H](C)c3c(-c4cc(C)cc(C)c4)[nH]c4c3CN(C(=O)Cc3c(F)cccc3C(F)(F)F)CC4)ccc2c1=O	0.091	0.0018	–	–
Cc1cc(C)cc(-c2[nH]c3c(c2[C@H](C)CNCCc2ccncc2)CN(C(=O)C2C(C)(C)C2(C)C)CC3)c1	0.475	0.0013	0.096	–

From ChEMBL document CHEMBL1149532, “Identification of 2-(4,5,6,7-tetrahydro-1H-pyrrolo[3,2-c]pyridin-3-yl)-ethylamine derivatives as novel GnRH receptor antagonists” (Bioorg Med Chem Lett, 2007)
